From patent US20050112573A1, “Method of detecting toxic substance” (priority 2001, published 2005)

System: yeast genes (level of expressed mRNA)
Experiment: DNA chip analysis of expressed mRNA of yeast genes after 2 h culture with a toxic chemical substance
Type: cell-based, Saccharomyces cerevisiae S288C
Outline: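 Values are treated-to-control fluorescence ratios from a whole-yeast-genome DNA chip (65° C, over 12 h hybridization) using Cy3/Cy5-labelled cDNA from mRNA. Log-phase S288C cells in YPD at 25° C were exposed 2 h to a toxicant at sublethal, growth-inhibiting concentration.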

Structure (SMILES): CCCCC[C@H](O)CC(=O)CCc1ccc(O)c(OC)c1 [(13), gingerol]
- level of expressed mRNA in the presence of chemical substance/in its absence (gene YAL012W): 1.1
- The level of expressed mRNA in the presence of chemical substance/absence: YAL014C (gene YAL014C): 1.5
- The level of expressed mRNA in the presence of chemical substance/absence: YAL017W (gene YAL017W): 2.2
- The level of expressed mRNA in the presence of chemical substance/absence: YAL018C (gene YAL018C): 1.3
- level of expressed mRNA in the presence of chemical substance/in its absence (gene YAL038W): 1.8
- level of expressed mRNA in the presence of chemical substance/in its absence (gene YAL044C): 1.1
- The level of expressed mRNA in the presence of chemical substance/absence: YAL049C (gene YAL049C): 1.6
- level of expressed mRNA in the presence of chemical substance/in its absence (gene YAL054C): 1.8
- The level of expressed mRNA in the presence of chemical substance/absence: YAR047C (gene YAR047C): 1.4
- The level of expressed mRNA in the presence of chemical substance/absence: YAR064W (gene YAR064W): 1.1
- level of expressed mRNA in the presence of chemical substance/in its absence (gene YAR071W): 0.3
- level of expressed mRNA in the presence of chemical substance/in its absence (gene YBL001C): 1.0
- The level of expressed mRNA in the presence of chemical substance/absence: YBL044W (gene YBL044W): 0.7
- The level of expressed mRNA in the presence of chemical substance/absence: YBL100C (gene YBL100C): 0.9
- The level of expressed mRNA in the presence of chemical substance/absence: YBR012C (gene YBR012C): 2.1
- The level of expressed mRNA in the presence of chemical substance/absence: YBR013C (gene YBR013C): 2.0
- level of expressed mRNA in the presence of chemical substance/in its absence (gene YBR014C): 0.9
- level of expressed mRNA in the presence of chemical substance/in its absence (gene YBR023C): 0.5
- level of expressed mRNA in the presence of chemical substance/in its absence (gene YBR029C): 1.7
- level of expressed mRNA in the presence of chemical substance/in its absence (gene YBR035C): 1.8
- level of expressed mRNA in the presence of chemical substance/in its absence (gene YBR050C): 1.3
- The level of expressed mRNA in the presence of chemical substance/absence: YBR051W (gene YBR051W): 1.2
- The level of expressed mRNA in the presence of chemical substance/absence: YBR063C (gene YBR063C): 1.7
- The level of expressed mRNA in the presence of chemical substance/absence: YBR066C (gene YBR066C): 0.6
- level of expressed mRNA in the presence of chemical substance/in its absence (gene YBR068C): 2.2
- level of expressed mRNA in the presence of chemical substance/in its absence (gene YBR111C): 1.6
- The level of expressed mRNA in the presence of chemical substance/absence: YBR124W (gene YBR124W): 0.9
- level of expressed mRNA in the presence of chemical substance/in its absence (gene YBR126C): 2.1
- The level of expressed mRNA in the presence of chemical substance/absence: YBR129C (gene YBR129C): 1.3
- level of expressed mRNA in the presence of chemical substance/in its absence (gene YBR145W): 2.0
- The level of expressed mRNA in the presence of chemical substance/absence: YBR162C (gene YBR162C): 0.7
- level of expressed mRNA in the presence of chemical substance/in its absence (gene YBR183W): 1.4
- level of expressed mRNA in the presence of chemical substance/in its absence (gene YBR222C): 1.6
- The level of expressed mRNA in the presence of chemical substance/absence: YBR255W (gene YBR255W): 1.4
- The level of expressed mRNA in the presence of chemical substance/absence: YBR281C (gene YBR281C): 1.2
- The level of expressed mRNA in the presence of chemical substance/absence: YBR287W (gene YBR287W): 3.4
- level of expressed mRNA in the presence of chemical substance/in its absence (gene YBR299W): 0.7
- level of expressed mRNA in the presence of chemical substance/in its absence (gene YCL009C): 1.6
- The level of expressed mRNA in the presence of chemical substance/absence: YCL042W (gene YCL042W): 7.5
- The level of expressed mRNA in the presence of chemical substance/absence: YCL044C (gene YCL044C): 1.7
- The level of expressed mRNA in the presence of chemical substance/absence: YCL056C (gene YCL056C): 1.3
- level of expressed mRNA in the presence of chemical substance/in its absence (gene YCL064C): 1.6
- The level of expressed mRNA in the presence of chemical substance/absence: YCR007C (gene YCR007C): 1.5
- level of expressed mRNA in the presence of chemical substance/in its absence (gene YCR037C): 1.3
- level of expressed mRNA in the presence of chemical substance/in its absence (gene YCR048W): 1.3
- level of expressed mRNA in the presence of chemical substance/in its absence (gene YCR098C): 1.4
- level of expressed mRNA in the presence of chemical substance/in its absence (gene YDL022W): 1.5
- The level of expressed mRNA in the presence of chemical substance/absence: YDL046W (gene YDL046W): 1.5
- The level of expressed mRNA in the presence of chemical substance/absence: YDL089W (gene YDL089W): 1.9
- The level of expressed mRNA in the presence of chemical substance/absence: YDL173W (gene YDL173W): 1.7
- The level of expressed mRNA in the presence of chemical substance/absence: YDL193W (gene YDL193W): 1.4
- The level of expressed mRNA in the presence of chemical substance/absence: YDL233W (gene YDL233W): 1.8
- level of expressed mRNA in the presence of chemical substance/in its absence (gene YDR009W): 1.2
- level of expressed mRNA in the presence of chemical substance/in its absence (gene YDR019C): 1.0
- The level of expressed mRNA in the presence of chemical substance/absence: YDR071C (gene YDR071C): 1.3
- The level of expressed mRNA in the presence of chemical substance/absence: YDR078C (gene YDR078C): 1.1
- The level of expressed mRNA in the presence of chemical substance/absence: YDR090C (gene YDR090C): 0.8
- The level of expressed mRNA in the presence of chemical substance/absence: YDR109C (gene YDR109C): 1.4
- The level of expressed mRNA in the presence of chemical substance/absence: YDR128W (gene YDR128W): 1.1
- The level of expressed mRNA in the presence of chemical substance/absence: YDR133C (gene YDR133C): 0.1
- The level of expressed mRNA in the presence of chemical substance/absence: YDR140W (gene YDR140W): 2.0
- The level of expressed mRNA in the presence of chemical substance/absence: YDR221W (gene YDR221W): 1.0
- The level of expressed mRNA in the presence of chemical substance/absence: YDR250C (gene YDR250C): 1.2
- The level of expressed mRNA in the presence of chemical substance/absence: YDR271C (gene YDR271C): 1.5
- The level of expressed mRNA in the presence of chemical substance/absence: YDR278C (gene YDR278C): 0.7
- The level of expressed mRNA in the presence of chemical substance/absence: YDR281C (gene YDR281C): 0.7
- The level of expressed mRNA in the presence of chemical substance/absence: YDR316W (gene YDR316W): 0.6
- The level of expressed mRNA in the presence of chemical substance/absence: YDR338C (gene YDR338C): 1.3
- The level of expressed mRNA in the presence of chemical substance/absence: YDR366C (gene YDR366C): 0.8
- level of expressed mRNA in the presence of chemical substance/in its absence (gene YDR380W): 0.4
- level of expressed mRNA in the presence of chemical substance/in its absence (gene YDR410C): 1.2
- The level of expressed mRNA in the presence of chemical substance/absence: YDR421W (gene YDR421W): 0.6
- The level of expressed mRNA in the presence of chemical substance/absence: YDR425W (gene YDR425W): 1.4
- The level of expressed mRNA in the presence of chemical substance/absence: YDR485C (gene YDR485C): 1.2
- level of expressed mRNA in the presence of chemical substance/in its absence (gene YDR487C): 1.5
- level of expressed mRNA in the presence of chemical substance/in its absence (gene YDR502C): 1.2
- The level of expressed mRNA in the presence of chemical substance/absence: YDR504C (gene YDR504C): 2.2
- level of expressed mRNA in the presence of chemical substance/in its absence (gene YEL011W): 1.5
- level of expressed mRNA in the presence of chemical substance/in its absence (gene YEL020C): 1.2
- The level of expressed mRNA in the presence of chemical substance/absence: YEL044W (gene YEL044W): 1.3
- level of expressed mRNA in the presence of chemical substance/in its absence (gene YER026C): 1.9
- level of expressed mRNA in the presence of chemical substance/in its absence (gene YER069W): 1.4
- The level of expressed mRNA in the presence of chemical substance/absence: YER092W (gene YER092W): 1.2
- The level of expressed mRNA in the presence of chemical substance/absence: YER182W (gene YER182W): 0.9
- The level of expressed mRNA in the presence of chemical substance/absence: YFL042C (gene YFL042C): 1.7
- level of expressed mRNA in the presence of chemical substance/in its absence (gene YFR015C): 2.5
- The level of expressed mRNA in the presence of chemical substance/absence: YFR026C (gene YFR026C): 1.1
- The level of expressed mRNA in the presence of chemical substance/absence: YFR056C (gene YFR056C): 0.3
- level of expressed mRNA in the presence of chemical substance/in its absence (gene YGL001C): 1.0
- level of expressed mRNA in the presence of chemical substance/in its absence (gene YGL022W): 1.0
- level of expressed mRNA in the presence of chemical substance/in its absence (gene YGL039W): 1.5
- The level of expressed mRNA in the presence of chemical substance/absence: YGL041C (gene YGL041C): 1.0
- The level of expressed mRNA in the presence of chemical substance/absence: YGL045W (gene YGL045W): 1.3
- The level of expressed mRNA in the presence of chemical substance/absence: YGL057C (gene YGL057C): 1.3
- The level of expressed mRNA in the presence of chemical substance/absence: YGL088W (gene YGL088W): 0.7
- level of expressed mRNA in the presence of chemical substance/in its absence (gene YGL104C): 2.0
- level of expressed mRNA in the presence of chemical substance/in its absence (gene YGL134W): 0.7
- level of expressed mRNA in the presence of chemical substance/in its absence (gene YGL154C): 2.0
- The level of expressed mRNA in the presence of chemical substance/absence: YGL183C (gene YGL183C): 1.5
- level of expressed mRNA in the presence of chemical substance/in its absence (gene YGL209W): 1.9
- The level of expressed mRNA in the presence of chemical substance/absence: YGL223C (gene YGL223C): 1.7
- level of expressed mRNA in the presence of chemical substance/in its absence (gene YGL253W): 1.5
- The level of expressed mRNA in the presence of chemical substance/absence: YGR038W (gene YGR038W): 1.2
- level of expressed mRNA in the presence of chemical substance/in its absence (gene YGR060W): 0.6
- The level of expressed mRNA in the presence of chemical substance/absence: YGR139W (gene YGR139W): 0.4
- The level of expressed mRNA in the presence of chemical substance/absence: YGR156W (gene YGR156W): 1.8
- The level of expressed mRNA in the presence of chemical substance/absence: YGR198W (gene YGR198W): 1.3
- The level of expressed mRNA in the presence of chemical substance/absence: YGR210C (gene YGR210C): 1.0
- The level of expressed mRNA in the presence of chemical substance/absence: YGR211W (gene YGR211W): 0.8
- The level of expressed mRNA in the presence of chemical substance/absence: YGR237C (gene YGR237C): 1.6
- The level of expressed mRNA in the presence of chemical substance/absence: YGR243W (gene YGR243W): 1.1
- The level of expressed mRNA in the presence of chemical substance/absence: YGR250C (gene YGR250C): 1.7
- The level of expressed mRNA in the presence of chemical substance/absence: YGR266W (gene YGR266W): 1.1
- The level of expressed mRNA in the presence of chemical substance/absence: YGR277C (gene YGR277C): 1.6
